# Results from patent US20080009517A1, “Use of nelfinavir as a radiation sensitizer” (The Trustees of the University of Pennsylvania, priority 2005, published 2008).
# Entries after “also recorded” stand apart in the source; their conditions may differ.
# What was measured:
# [1] = system: non-small cell lung carcinoma; settings: randomized phase II trial; cited from earlier work
# [2] = system: REF; test: Clonogenic assay, radiation sensitization, REF cells; type: cell-based; settings: 2 Gy, nelfinavir added at least one hour prior to irradiation, mean +/- spread
# Description: (§1) Cultures of cells in log growth phase were counted and plated in 60-mm dishes containing 4 ml of media. The cells were allowed to attach and nelfinavir was added to cultures at least one hour prior to irradiation. Cells were irradiated with a Mark I cesium irradiator (J. L. Shepherd, San Fernando, Calif.) at a dose rate of 1.6 Gy/min. Colonies were stained and counted 10-14 days after irradiation. A light box was used to assist in counting colonies. The surviving fraction was calculated by dividing the number of colonies formed by the number of cells plated times plating efficiency (Table 1). Each point value represents the mean surviving fraction from at least six replicate dishes.
# [3] = system: A549; test: Clonogenic assay, radiation sensitization, A549 cells; type: cell-based; settings: A549, 2 Gy, nelfinavir added at least one hour prior to irradiation; mean +/- spread
# Description: as §1
# [4] = system: SQ20B; test: Clonogenic assay, radiation sensitization, SQ20B cells; type: cell-based, human; settings: SQ2OB cells, 5 μM nelfinavir + 2 Gy radiation; control 70%
# Description: as §1
# [5] = system: Akt phosphorylation; test: Western blot of Akt phosphorylation in white blood cells of HIV patients; type: in vivo, human; settings: HIV patients taking nelfinavir vs. HIV patients not actively using nelfinavir
# Source text: As a proof of principle, it was examined whether there was down-regulation of Akt in HIV patients who are being actively treated with HPIs. Blood samples were obtained from HIV patients on courses of various combinations of drugs. WBCs were isolated and stained for Akt using a Western Blot. Patients taking nelfinavir had decreased Akt phosphorylation compared to the levels of Akt phosphorylation detected in HIV patients who were not actively using nelfinavir (FIG. 7).
# [6] = system: SQ2OB xenograft tumors; test: In vivo to in vitro clonogenic assay in nude mice with SQ2OB tumors
# Description: In an in vivo experiment to examine the nelfinavir-mediated radiation sensitization of tumors, tumors in animals were radiation-sensitized using nelfinavir. FIG. 5 illustrates the results of an in vivo to in vitro clonogenic assay in nude mice with SQ2OB tumors. Mice were treated with 8 Gy radiation, with and without nelfinavir at 0.6 mg/day. […] FIG. 6 illustrates the results of in vivo to in vitro clonogenic assays used to examine in vivo sensitization of tumor cells to drugs. Nelfinavir was delivered to mice at 0.6 mg/day via osmotic pump. The mice had SQ2OB xenograft tumors on hind leg. The pump was placed in mouse 2 days prior to experiment. On the day of experiment, the mouse was anesthetized and irradiated to 8 Gy. The tumor was then harvested and a cell suspension made. The cells were plated and the plating efficiency determined. The result indicted the number of cells that were viable and able to reproduce by forming colonies in each individual group (plating efficiency).
# [7] = system: MIAPACA2; test: Clonogenic assay, radiation sensitization, MIAPACA2 cells; type: cell-based; settings: MIAPACA2, 2 Gy, nelfinavir added at least one hour prior to irradiation; mean +/- spread
# Description: as §1
# [8] = system: T24; test: Clonogenic assay, radiation sensitization, T24 cells; type: cell-based; settings: T24, 2 Gy, nelfinavir added at least one hour prior to irradiation; mean +/- spread
# Description: as §1
# [9] = system: Akt phosphorylation at Ser 473; test: Western blot analysis of Akt phosphorylation in SQ2OB cells; type: cell-based, human
# Source text: Using Western blot analysis, a human head-and-neck cancer cell line, SQ2OB, containing a constitutively-active EGFR receptor and thus, increased signaling through PI3K, was examined for Akt phosphorylation.
Compound,radiographic response rate [1] [%],nelfinavir SF2 [2],nelfinavir SF2 [3],surviving fraction after 2 Gy (SF2) [4] [%],Akt phosphorylation in white blood cells [5],plating efficiency of tumor cells derived from the mice ([6]; nelfinavir 0.6 mg/day + 8 Gy radiation),"plating efficiency of tumor cells derived from the mice ([6]; nelfinavir alone 0.6 mg/day, no radiation)",nelfinavir SF2 [7],nelfinavir SF2 [8],Akt phosphorylation at Ser 473 ([9]; 5 μM nelfinavir),Akt phosphorylation at Ser 473 ([9]; 10 μM nelfinavir)
"COc1cc2ncnc(Nc3ccc(F)c(Cl)c3)c2cc1OCCCN1CCOCC1 [Iressa, gefitinib]",~10,–,–,–,–,–,–,–,–,–,–
Cc1c(O)cccc1C(=O)N[C@@H](CSc1ccccc1)[C@H](O)CN1C[C@H]2CCCC[C@H]2C[C@H]1C(=O)NC(C)(C)C [nelfinavir],–,0.397 +/− 0.054,0.410 +/− 0.062,40,decreased,synergistically decreased; also recorded: significant increase in cell kill,did not result in a change; also recorded: no toxicity,0.526 +/− 0.040,0.452 +/− 0.023,down-regulation,abolished
